Results on 1 compound are retold here after patent US7029652B2, “Method of treating tumors” (The Regents of the University of California, priority 1998, dated 2006).

Experiment [1] has as its system HBT 3477 cells. Put plainly: Attachment of HBT 3477 cells to vitronectin. The class given is cell-based, human. Particulars: read-out: IC50 for blocking attachment of HBT 3477 cells to vitronectin. From the text: Cell Lines. HBT 3477, a human breast adenocarcinoma cell line, was obtained from Bristol-Myers Squibb Pharmaceutical Research Institute (Seattle, Wash.). Greater than 70% of HBT 3477 cells stain intensely with L6. In HBT 3477 cells, bcl-2 is expressed and p53 is mutant, with a nonsense mutation in exon 10, resulting in a deletion in the region of the p53 protein that functions in tetramerization and in detection of double-stranded DNA breaks. HBT 3477 cells express functional αvβ5 integrin, but not αvβ3 integrin, as attachment to vitronectin is blocked by αvβ5-specific P1F6 antibody, but is not blocked by αvβ3-specific LM609 antibody.

The subject of experiment [2] is αvβ3-expressing M21 melanoma cells. Particulars: stated in words; cited from earlier work.

Take `CC(C)[C@H]1C(=O)N[C@@H](CCCN=C(N)N)C(=O)NCC(=O)N[C@@H](CC(=O)O)C(=O)N[C@H](Cc2ccccc2)C(=O)N1C` [cyclo-(Arg-Gly-Asp-D-Phe-[N-Me]-Val)]: the IC50 – broadly, the concentration needed to halve the response being measured – in experiment [1] was roughly 5 µM. Besides, the “IC50 for αvβ3-expressing M21 melanoma cells” value in experiment [2] is reported as “low micromolar range”.
